Measured values reported in paper PMC9157191, “The ex vivo pharmacology of HIV-1 antiretrovirals differs between macaques and humans” (iScience, 2022).

What was measured:
[1] = Drug concentrations in Rhesus macaque vaginal tissue explants (LC-MS/MS); format: in vitro ADME, Rhesus macaque (Macaca mulatta); settings: for AUC3h–15d / Cmax: Rh. macaque vaginal explants, intracellular
[2] = Drug concentrations in human ecto-cervical tissue explants (LC-MS/MS); settings: human ecto-cervical explants; harvesting schedule of the assay
[3] = Drug concentrations in human colorectal tissue explants (LC-MS/MS); format: in vitro ADME; settings: for AUC3h-15d / Cmax: Human colorectal explants, intracellular
[4] = Drug concentrations in Rhesus macaque ecto-cervical tissue explants (LC-MS/MS); format: in vitro ADME, Rhesus macaque (Macaca mulatta); settings: NHP ecto-cervical explants; harvesting schedule of the assay
[5] = Drug concentrations in Rhesus macaque colorectal tissue explants (LC-MS/MS); format: in vitro ADME, Rhesus macaque (Macaca mulatta); settings: for AUC3h–15d / Cmax: Rh. macaque colorectal explants, intracellular
HIV-1YU.2 = experiment: microbe, parasite or virus in culture; format: cell-based; settings: Human colorectal explants
RT-SHIV [6] = experiment: tissue or blood; format: cell-based; settings: for p27 AUC3-15: Rhesus macaque colorectal explants
HIV-1YU.2 K65R = experiment: microbe, parasite or virus in culture; format: cell-based; settings: Human colorectal explants
SIVmac32H K65RM184V [7] = experiment: microbe, parasite or virus in culture; format: cell-based; settings: for p27 AUC3-15: Rhesus macaque colorectal explants
HIV-1BaL [8] = experiment: microbe, parasite or virus in culture; format: cell-based; settings: Human colorectal explants
HIV-1/SIV/SHIV isolates = format: cell-based
HIV-1BaL [9] = experiment: microbe, parasite or virus in culture; format: cell-based; settings: Human cervical explants
SIVmac32H [10] = experiment: microbe, parasite or virus in culture; format: cell-based; settings: for p27 AUC3-15: Rhesus macaque vaginal explants
SIVmac32H [11] = experiment: microbe, parasite or virus in culture; format: cell-based; settings: for p27 AUC3-15: Rhesus macaque colorectal explants
[12] = tested on: HIV-1YU.2 L313T/I321V and V314T/I321V; format: cell-based
HIV-1YU.2 M184V = experiment: microbe, parasite or virus in culture; format: cell-based; settings: Human colorectal explants
SIVmac32H [13] = experiment: microbe, parasite or virus in culture; format: cell-based; settings: for p27 AUC3-15: Rhesus macaque cervical explants
SIVmac32H K65RM184V [14] = experiment: microbe, parasite or virus in culture; format: cell-based; settings: for p27 AUC3-15: Rhesus macaque cervical explants
SIVmac32H K65RM184V [15] = experiment: microbe, parasite or virus in culture; format: cell-based; settings: for p27 AUC3-15: Rhesus macaque vaginal explants
RT-SHIV [16] = experiment: tissue or blood; format: cell-based; settings: for p27 AUC3-15: Rhesus macaque vaginal explants
HIV-1YU.2 K65RM184V = experiment: microbe, parasite or virus in culture; format: cell-based; settings: Human colorectal explants;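 as to p24 AUC3-15: high arm above the IC50 and low arm below the IC50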
[17] = Comb. gel, High [ ]: TFV 70 µM + MVC […]
[18] = Comb. gel, Low [ ]: TFV 7 µM + MVC […]
[19] = Single gel, High [ ]: TFV 70 µM
[20] = high concentration: TFV 70 µM, MVC […], or TFV 70 µM + MVC […]
[21] = low concentration: TFV 7 µM, MVC […], or TFV 7 µM + MVC […]
[22] = NHP colorectal explants, day 15

Compound: CC(Cn1cnc2c(N)ncnc21)OCP(=O)(O)OP(=O)(O)OP(=O)(O)O (stereo in doubt) [TFVdp]
- Cmax fold increase ([1]; NHP vaginal Cmax lower than in colorectal explants): 1.6 fold
- AUC3h–15d [1, 17]: 96.03 fmol·days/mg
- Cmax [1, 17]: 12.81 fmol/mg
- AUC3h–15d [1, 18]: 54.08 fmol·days/mg
- Cmax [1, 18]: 7.21 fmol/mg
- AUC3h–15d [1, 19]: 134.18 fmol·days/mg
- Cmax [1, 19]: 17.89 fmol/mg
- AUC3h–15d ([1]; Single gel, Low [ ]: TFV 7 µM): 46.22 fmol·days/mg
- Cmax ([1]; Single gel, Low [ ]: TFV 7 µM): 6.16 fmol/mg
- persistence of metabolite: detected post-dose ([1]; vaginal tissue): 3 h
- TFVdp detection [2]: neither detected
- AUC3h-15d [3, 17]: 82.53 fmol·days/mg
- Cmax [3, 17]: 20.07 fmol/mg
- AUC3h-15d [3, 18]: 41.21 fmol·days/mg
- Cmax [3, 18]: 8.36 fmol/mg
- AUC3h-15d [3, 19]: 98.95 fmol·days/mg
- Cmax [3, 19]: 22.41 fmol/mg
- AUC3h-15d ([3]; Single gel, Low [ ]: TFV 7 µM): 35.29 fmol·days/mg
- Cmax ([3]; Single gel, Low [ ]: TFV 7 µM): 8.36 fmol/mg
- difference in TFVdp concentrations between NHP and humans ([3]; colorectal explants): No significant differences
- TFVdp detection [4]: neither detected
- AUC3h–15d [5, 17]: 148.40 fmol·days/mg
- Cmax [5, 17]: 29.12 fmol/mg
- AUC3h–15d [5, 18]: 107.96 fmol·days/mg
- Cmax [5, 18]: 24.43 fmol/mg
- AUC3h–15d [5, 19]: 176.28 fmol·days/mg
- Cmax [5, 19]: 41.93 fmol/mg
- AUC3h–15d ([5]; Single gel, Low [ ]: TFV 7 µM): 164.03 fmol·days/mg
- Cmax ([5]; Single gel, Low [ ]: TFV 7 µM): 41.47 fmol/mg
- persistence of metabolite: still detected post-dose ([5]; colorectal explants): up to 3 days

Compound: Maraviroc [MVC]
- IC50 (HIV-1YU.2; day 15): 1.15 ± 0.84 µM
- p24 AUC3-15 (HIV-1YU.2; [20]): 1.60 ± 0.57 µgxd/ml
- p24 AUC3-15 (HIV-1YU.2; [21]): 9.15 ± 5.28 µgxd/ml
- IC50 (RT-SHIV [6]; [22]): 2.32 ± 0.78 µM
- p27 AUC3-15 (RT-SHIV [6]; [20]): 2.85 ± 2.01 µgxd/ml
- p27 AUC3-15 (RT-SHIV [6]; [21]): 5.25 ± 3.12 µgxd/ml
- IC50 (HIV-1YU.2 K65R; day 15): 2.77 ± 1.12 µM
- p24 AUC3-15 (HIV-1YU.2 K65R; [20]): 0.36 ± 0.05 µgxd/ml
- p24 AUC3-15 (HIV-1YU.2 K65R; [21]): 0.76 ± 0.10 µgxd/ml
- IC50 (SIVmac32H K65RM184V [7]; [22]): 1.98 ± 1.07 µM
- p27 AUC3-15 (SIVmac32H K65RM184V [7]; [20]): 1.33 ± 0.22 µgxd/ml
- p27 AUC3-15 (SIVmac32H K65RM184V [7]; [21]): 1.65 ± 0.32 µgxd/ml
- IC50 (HIV-1BaL [8]; day 15): 1.26 ± 0.49 µM
- p24 AUC3-15 (HIV-1BaL [8]; [20]): 0.59 ± 0.33 µgxd/ml
- p24 AUC3-15 (HIV-1BaL [8]; [21]): 2.68 ± 1.79 µgxd/ml
- potency against the mutant isolates (HIV-1/SIV/SHIV isolates): no impact
- IC50 (HIV-1BaL [9]; day 15): 2.85 ± 0.49 µM
- p24 AUC3-15 (HIV-1BaL [9]; [20]): 1.32 ± 0.36 µgxd/ml
- p24 AUC3-15 (HIV-1BaL [9]; [21]): 2.61 ± 1.35 µgxd/ml
- IC50 (SIVmac32H [10]; NHP vaginal explants, day 15): 3.32 ± 3.19 µM
- p27 AUC3-15 (SIVmac32H [10]; [20]): 1.26 ± 0.24 µgxd/ml
- p27 AUC3-15 (SIVmac32H [10]; [21]): 1.45 ± 0.28 µgxd/ml
- IC50 (SIVmac32H [11]; [22]): 1.96 ± 1.3 µM
- p27 AUC3-15 (SIVmac32H [11]; [20]): 2.42 ± 0.53 µgxd/ml
- p27 AUC3-15 (SIVmac32H [11]; [21]): 6.12 ± 1.35 µgxd/ml
- inhibitory potency against Env-mutated HIV-1YU.2 [12]: no reduction of inhibitory potency
- IC50 (HIV-1YU.2 M184V; day 15): 1.24 ± 1.88 µM
- p24 AUC3-15 (HIV-1YU.2 M184V; [20]): 0.26 ± 0.13 µgxd/ml
- p24 AUC3-15 (HIV-1YU.2 M184V; [21]): 0.70 ± 0.11 µgxd/ml
- IC50 (SIVmac32H [13]; NHP cervical explants, day 15): 2.74 ± 1.18 µM
- p27 AUC3-15 (SIVmac32H [13]; [20]): 1.27 ± 0.35 µgxd/ml
- p27 AUC3-15 (SIVmac32H [13]; [21]): 1.42 ± 0.44 µgxd/ml
- IC50 (SIVmac32H K65RM184V [14]; NHP cervical explants, day 15): 4.57 ± 2.92 µM
- p27 AUC3-15 (SIVmac32H K65RM184V [14]; [20]): 1.37 ± 0.30 µgxd/ml
- p27 AUC3-15 (SIVmac32H K65RM184V [14]; [21]): 1.62 ± 0.33 µgxd/ml
- IC50 (SIVmac32H K65RM184V [15]; NHP vaginal explants, day 15): 3.31 ± 1.68 µM
- p27 AUC3-15 (SIVmac32H K65RM184V [15]; [20]): 1.33 ± 0.30 µgxd/ml
- p27 AUC3-15 (SIVmac32H K65RM184V [15]; [21]): 1.55 ± 0.28 µgxd/ml
- IC50 (RT-SHIV [16]; NHP vaginal explants, day 15): 2.56 ± 1.59 µM
- p27 AUC3-15 (RT-SHIV [16]; [20]): 1.27 ± 0.28 µgxd/ml
- p27 AUC3-15 (RT-SHIV [16]; [21]): 1.54 ± 0.31 µgxd/ml
- IC50 (HIV-1YU.2 K65RM184V; day 15): 1.43 ± 0.98 µM
- p24 AUC3-15 (HIV-1YU.2 K65RM184V; [20]): 0.82 ± 0.09 µgxd/ml
- p24 AUC3-15 (HIV-1YU.2 K65RM184V; [21]): 1.60 ± 0.38 µgxd/ml
